pIC50: −log10 of the molar value. The source made the active and inactive calls. No cut-off for these calls is given here.
What was measured:
[1] = system: Plasmodium falciparum; test: Antimalarial activity against chloroquine-sensitive Plasmodium falciparum 3D7 infected in […] after 72 hrs by SYBR Green I-based fluorescence method; type: functional, organism-based; conditions: 3D7, 72 h
[2] = biological target: Plasmepsin V (Plasmodium falciparum (isolate 3D7)) (UniProt Q8I6Z5); test: Inhibition of Plasmodium falciparum […] plasmepsin-5 using DABCYL-GNKRTLAQKQG-EDANS as substrate measured every 15 mins of 75 mins by fluorescence assay
Sequence of Plasmepsin V (Plasmodium falciparum (isolate 3D7)) (Q8I6Z5 whole entry, looked up): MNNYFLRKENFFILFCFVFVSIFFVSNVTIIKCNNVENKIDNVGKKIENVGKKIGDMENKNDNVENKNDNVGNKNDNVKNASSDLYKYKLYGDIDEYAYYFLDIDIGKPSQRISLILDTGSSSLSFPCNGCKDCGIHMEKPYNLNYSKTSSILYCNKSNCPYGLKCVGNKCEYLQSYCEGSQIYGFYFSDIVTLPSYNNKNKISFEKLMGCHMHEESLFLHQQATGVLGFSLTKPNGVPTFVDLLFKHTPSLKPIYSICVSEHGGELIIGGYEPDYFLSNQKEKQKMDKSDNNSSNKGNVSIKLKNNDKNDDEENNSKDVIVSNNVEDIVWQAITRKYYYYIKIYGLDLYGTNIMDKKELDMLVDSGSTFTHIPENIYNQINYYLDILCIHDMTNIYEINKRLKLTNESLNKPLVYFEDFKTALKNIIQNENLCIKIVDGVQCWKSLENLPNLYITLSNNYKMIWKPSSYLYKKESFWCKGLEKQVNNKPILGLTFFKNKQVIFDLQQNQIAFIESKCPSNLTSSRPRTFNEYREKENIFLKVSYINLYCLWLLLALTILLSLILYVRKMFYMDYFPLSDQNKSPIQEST

Structure (SMILES) | pIC50 [1] | inhibition [2]
N=C1NC(c2cccc(-c3cccnc3)c2)(c2cccc(-c3cccnc3)c2)C(=O)N1C1CCCCC1 | 6.14 | –
COc1ccc(C2(c3ccc(OC)cc3)NC(=N)N(CCCc3ccccc3)C2=O)cc1 | 6.29 | –
Cc1cccc(C2(c3cccc(C)c3)NC(=N)N(C3CCCCC3)C2=O)c1 | 6.27 | –
COc1ccc(C2(c3cccc(-c4cccnc4)c3)NC(=N)N(C3CCCCC3)C2=O)cc1 (racemic) | 6.23 | –
COc1cccc(C2(c3cccc(-c4ccncc4)c3)NC(=N)N(C3CCCCC3)C2=O)c1 (racemic) | 6.50 | –
N=C1NC(c2ccccc2)(c2cccc(Oc3ccccc3)c2)C(=O)N1C1CCCCC1 (racemic) | 6.37 | –
N=C1NC(c2ccccc2)(c2ccccc2)C(=O)N1Cc1ccccc1 | 5.08 | –
N=C1NC(c2ccccc2)(c2cccc(OCc3ccccc3)c2)C(=O)N1C1CCCCC1 (racemic) | 6.19 | –
N=C1NC(c2ccccc2)(c2ccccc2)C(=O)N1C1CCCCC1 | 5.41 | –
COc1ccc(C2(c3cccc(-c4ccccc4)c3)NC(=N)N(C3CCCCC3)C2=O)cc1 (racemic) | 5.83 | –
COc1ccc(C2(c3cccc(-c4ccccn4)c3)NC(=N)N(C3CCCCC3)C2=O)cc1 (racemic) | 5.74 | –
COc1cccc(C2(c3ccccc3)NC(=N)N(C3CCCCC3)C2=O)c1 (racemic) | 6.04 | –
COc1cccc(C2(c3cccc(OC)c3)NC(=N)N(C3CCCCC3)C2=O)c1 | 6.11 | inactive
COc1cccc(C2(c3cccc(-c4cccnc4)c3)NC(=N)N(C3CCCCC3)C2=O)c1 (racemic) | 6.10 | –
CC(C)(C)N1C(=N)NC(c2ccccc2)(c2ccccc2)C1=O | < 4.00 | –
N=C1NC(c2ccc(Cl)cc2)(c2ccc(Cl)cc2)C(=O)N1C1CCCCC1 | 5.97 | –
N=C1NC(c2cccc(Cl)c2)(c2cccc(Cl)c2)C(=O)N1C1CCCCC1 | 5.97 | –
N=C1NC(c2ccc(OC(F)(F)F)cc2)(c2ccc(OC(F)(F)F)cc2)C(=O)N1C1CCCCC1 | 5.66 | –

The next lines start with the values.

pIC50 [1] | inhibition [2] | Structure (SMILES)
6.07 | – | COc1ccc(C2(c3ccc(OC)cc3)NC(=N)N(Cc3ccccc3)C2=O)cc1
5.10 | – | COc1ccc(C2(c3ccc(OC)cc3)NC(=N)N(C)C2=O)cc1
6.27 | – | COc1ccc(C2(c3ccccc3)NC(=N)N(C3CCCCC3)C2=O)cc1 (racemic)
6.16 | – | COc1ccc(C2(c3ccc(OC)cc3)NC(=N)N(C3CCN(C)CC3)C2=O)cc1
6.33 | – | CCOc1ccc(C2(c3ccc(OCC)cc3)NC(=N)N(C3CCCCC3)C2=O)cc1
5.94 | – | CCCN1C(=N)NC(c2ccc(OC)cc2)(c2ccc(OC)cc2)C1=O
6.21 | – | COc1ccc(C2(c3ccc(OC)cc3)NC(=N)N(C3CCCC3)C2=O)cc1
5.78 | – | COc1ccc(C2(c3ccc(OC)cc3)NC(=N)N(C(C)C)C2=O)cc1
5.40 | – | CCN1C(=N)NC(c2ccc(OC)cc2)(c2ccc(OC)cc2)C1=O
6.61 | – | CCC(CN1C(=N)NC(c2ccc(OC)cc2)(c2ccc(OC)cc2)C1=O)c1ccccc1 (stereo not drawn)
6.14 | – | COc1ccc(C2(c3ccc(OC)cc3)NC(=N)N(C3CCC3)C2=O)cc1
5.39 | – | COc1ccc(C2(c3ccc(OC)cc3)NC(=N)N(C3CC3)C2=O)cc1
4.83 | – | COc1ccc(C2(c3ccc(OC)cc3)NC(=N)N(C3CCC(O)CC3)C2=O)cc1 (stereo not drawn)
< 5.30 | – | COc1ccc(C2(c3ccc(OC)cc3)NC(=N)N(C3CCNCC3)C2=O)cc1
6.37 | – | COc1ccc(C2(c3ccc(OC)cc3)NC(=N)N(C3CCCCCC3)C2=O)cc1
6.36 | – | COc1ccc(C2(c3ccc(OC)cc3)NC(=N)N(C3CCN(C(=O)OC(C)(C)C)CC3)C2=O)cc1
4.00 | – | COc1ccc(C2(c3ccc(OC)cc3)NC(=N)N(c3ccccc3)C2=O)cc1
5.62 | – | COc1ccc(C2(c3ccc(OC)cc3)NC(=N)N(CCc3ccccc3)C2=O)cc1
5.90 | – | Cc1ccc(C2(c3ccc(C)cc3)NC(=N)N(C3CCCCC3)C2=O)cc1

— ChEMBL document CHEMBL3108756, “Evaluation of aminohydantoins as a novel class of antimalarial agents” (ACS Med Chem Lett, 2014)
